Reference: ChEMBL document CHEMBL5108080 (J Med Chem, 2022)
Activity calls are given as the source filed them. The calls are words filed in the database; no cut-off is given here.

Key:
[1] = tested on: Vesicular stomatitis virus; assay: Antiviral activity against VSV pseudotyped virus infected in A549 cells assessed as inhibition of viral entry incubated for 48 hrs by measuring luciferase activity by Neolite reporter gene assay; type: functional, organism-based; conditions: A549, 48 h
Influenza A virus [2] = assay: Antiviral activity against […] influenza A H5N1 pseudotyped virus infected in A549 cells assessed as inhibition of viral entry incubated for 48 hrs by measuring luciferase activity by Neolite reporter gene assay; type: functional, organism-based; conditions: H5N1, A549, 48 h
[3] = Cytotoxicity against human A549 cells incubated for 48 hrs by celltiter-glo luminescent cell viability assay; type: toxicity, cell-based
[4] = Selectivity index, ratio of CC50 for human A549 cells to IC50 for group 2 influenza A H7N1 pseudotyped virus infected in A549 cells; type: toxicity, cell-based; conditions: read-out: Ratio CC50/IC50
[5] = Selectivity index, ratio of CC50 for human A549 cells to IC50 for VSV pseudotyped virus infected in A549 cells; type: toxicity, cell-based; conditions: read-out: Ratio CC50/IC50
Influenza A virus [6] = assay: Antiviral activity against group 2 influenza A H7N1 pseudotyped virus infected in A549 cells assessed as inhibition of viral entry incubated for 48 hrs by measuring luciferase activity by Neolite reporter gene assay; type: functional, organism-based; conditions: H7N1, A549, 48 h
[7] = Selectivity index, ratio of CC50 for human A549 cells to IC50 for […] influenza A H5N1 pseudotyped virus infected in A549 cells; type: toxicity, cell-based; conditions: read-out: Ratio CC50/IC50
Influenza A virus [8] = assay: (§1) Antiviral activity against group 2 influenza A virus H3N2 (A/Victoria/361/2011) infected in MDCK cells infected with supernatant of compound treated virus-producing human A549 cells assessed as reduction in viral titer at 1 to 10 uM treated for 48 hrs with virus-producing human A549 cells followed by MDCK cells infection for 48 hrs by crystal violet staining based plaque assay; type: functional, organism-based; conditions: dose 1-10 µM, time 96.0 hrs
Influenza A virus [9] = assay: as §1, with “(A/Hong Kong-11/1968)” for “(A/Victoria/361/2011)”; type: functional, organism-based; conditions: dose 1-10 µM, time 96.0 hrs
Influenza A virus [10] = assay: Antiviral activity against group 2 influenza A virus H7N1 wild type; type: functional, organism-based

SMILES | IC50 [1] | IC50 (Influenza A virus [2]) | CC50 at 48 h [3] | selectivity ratio [4] | selectivity ratio [5] | IC50 (Influenza A virus [6]) | selectivity ratio [7] | Activity (Influenza A virus [8]) | Activity (Influenza A virus [9]) | IC50 (Influenza A virus [10])
Brc1ccc(-c2nc3ncccn3c2NC2CCCCC2)c(CN2CCOCC2)c1 | 60 µM | 32 µM | 54 µM | 5 | < 1 | 9.9 µM | > 1 |  |  | 
CCCCOc1ccc(-c2nc3ncccn3c2NCc2ccc3ccccc3c2)cc1 |  |  | 33 µM | 6 |  | 6 µM |  |  |  | 
Nc1nc2ncccn2c1-c1ccc(Br)cc1 |  |  | > 100 µM | > 1 |  | 100 µM |  |  |  | 
CCCCOc1ccc(-c2nc3ncccn3c2N2C(=O)c3cccc(O)c3C2=O)cc1 |  |  | > 100 µM | > 6.6 |  | 15 µM |  |  |  | 
CCCCOc1ccc(-c2nc3ncccn3c2NCC2CCCCC2)cc1 |  |  | 35 µM | 110 |  | 0.31 µM |  |  |  | 
CC(C)(C)CC(C)(C)Nc1c(-c2ccc(Br)cc2)nc2ncccn12 |  |  | 32 µM | 32 |  | 1 µM |  |  |  | 
COc1ccccc1-c1nc2ncccn2c1N(C(C)=O)C1CCCCC1 |  |  | > 100 µM | > 1 |  | > 100 µM |  |  |  | 
Nc1c(-c2ccc(Br)cc2)nc2ncccn12 |  |  | > 100 µM | > 1 |  | 100 µM |  |  |  | 
c1ccc(-c2nc3ncccn3c2NC2CCCCC2)cc1 | 74 µM | 46 µM | 100 µM |  |  | 0.66 µM |  | Active | Active | 
CCCCOc1ccc(-c2nc3ncccn3c2NCc2ccco2)cc1 |  |  | 78 µM | 10 |  | 7.9 µM |  |  |  | 
c1cnc2nc(-c3ccc(OC4CCCC4)cc3)c(NC3CCCCC3)n2c1 |  |  | 39 µM | 57 |  | 0.68 µM |  |  |  | 
FC(F)(F)c1cc(Br)ccc1-c1nc2ncccn2c1NC1CCCCC1 | 24 µM | 20 µM | 25 µM | 18 | 1 | 1.4 µM | 1 | Active | Active | 
Brc1ccc(-c2nc3ncccn3c2NC2CCCCC2)cc1 | 42 µM | > 100 µM | > 100 µM |  |  | 0.2 µM |  | Active | Active | 
Oc1ccc(-c2nc3ncccn3c2NC2CCCCC2)cc1 | 65 µM | 36 µM | > 100 µM |  |  | 0.052 µM |  | Active | Active | 
Cc1cc(Br)ccc1-c1nc2ncccn2c1Nc1ccccc1 | 100 µM | > 100 µM | 40 µM | 18 | 1 | 2.2 µM | < 1 |  |  | 
Clc1ccc(-c2nc3ncccn3c2NC2CCCCC2)cc1 | 36 µM | > 100 µM | > 100 µM | > 670 | > 2 | 0.15 µM | > 1 | Active | Active | 
CN(c1c(-c2ccc(F)cc2)nc2ncccn12)C1CCCCC1 |  |  | > 100 µM | > 77 |  | 1.3 µM |  |  |  | 
CCOC(=O)CCCOc1ccc(-c2nc3ncccn3c2NC2CCCCC2)cc1 |  |  | > 100 µM | > 560 |  | 1.8 µM |  |  |  | 
CCNC(=O)CCCOc1ccc(-c2nc3ncccn3c2NC2CCCCC2)cc1 |  |  | > 100 µM | > 1600 |  | 0.064 µM |  |  |  | 
COCCCCOc1ccc(-c2nc3ncccn3c2NC2CCCCC2)cc1 | 40 µM | 92 µM | 100 µM | 400 | 2 | 0.25 µM | 1 | Active | Active | 
CCCCOc1ccc(-c2nc3ncccn3c2NC2CCCCCC2)cc1 |  |  | 26 µM | 59 |  | 0.44 µM |  |  |  | 
Brc1ccc(-c2nc3ncccn3c2Nc2ccccc2)cc1 |  |  | > 100 µM | > 67 |  | 1.5 µM |  |  |  | 
CCCCOc1ccc(-c2c(NC(C)(C)CC(C)(C)C)nc3ncccn23)cc1 |  |  | 49 µM | 6 |  | 8.1 µM |  |  |  | 
CCCCOc1ccc(-c2nc3ncccn3c2NCc2ccccn2)cc1 |  |  | > 100 µM | > 6 |  | 16 µM |  |  |  | 
CCCCOc1ccc(-c2nc3ncccn3c2NC(C)(C)CC(C)(C)C)cc1 |  |  | 29 µM | 13 |  | 2.3 µM |  |  |  | 
CCCCOc1ccc(-c2nc3ncccn3c2NC2CCCC2)cc1 |  |  | 40 µM | 27 |  | 1.5 µM |  |  |  | 
Oc1cccc(-c2nc3ncccn3c2NC2CCCCC2)c1 |  |  | 100 µM | 10 |  | 10 µM |  |  |  | 

SMILES | IC50 [1] | IC50 (Influenza A virus [2]) | CC50 at 48 h [3] | selectivity ratio [4] | selectivity ratio [5] | IC50 (Influenza A virus [6]) | selectivity ratio [7] | Activity (Influenza A virus [8]) | Activity (Influenza A virus [9]) | IC50 (Influenza A virus [10])
Cc1cc(C)n2c(Nc3ccc4c(c3)OCCO4)c(-c3cccc(Br)c3)nc2n1 |  |  | > 100 µM | > 400 |  | 0.25 µM |  |  |  | 
Cc1cc(Br)ccc1-c1nc2ncccn2c1NC1CCCCC1 | 39 µM | 45 µM | 45 µM |  |  | 0.17 µM |  | Active | Active | 
COCCOc1ccc(-c2nc3ncccn3c2Nc2ccccc2)cc1 |  |  | > 100 µM | > 19 |  | 5.2 µM |  |  |  | 
CCCCOc1ccc(-c2c(N)nc3ncccn23)cc1 |  |  | > 100 µM | > 1.7 |  | 58 µM |  |  |  | 
CCCCOc1ccc(-c2nc3ncccn3c2NCc2nc[nH]c2C)cc1 |  |  | 100 µM | 1 |  | 100 µM |  |  |  | 
O=C(O)CCCOc1ccc(-c2nc3ncccn3c2NC2CCCCC2)cc1 |  |  | > 100 µM | > 560 |  | 0.18 µM |  |  |  | 
Fc1ccc(-c2nc3ncccn3c2NC2CCCCC2)cc1 | 53 µM | 46 µM | 100 µM |  |  | 0.023 µM |  | Active | Active | 
CCCCOc1ccc(-c2nc3ncccn3c2NC(C)C)cc1 |  |  | 68 µM | 30 |  | 2.3 µM |  |  |  | 
CCOC(=O)C1=C[C@@H](OC(CC)CC)[C@H](NC(C)=O)[C@@H](N)C1 [OSELTAMIVIR] |  |  |  |  |  |  |  | Active | Active | 
CCCCOc1ccc(-c2nc3ncccn3c2NC2CCCCC2)cc1 | 36 µM | 84 µM | 52 µM | 78 | 2 | 0.67 µM | 1 |  |  | 
CCCCOc1ccc(-c2nc3ncccn3c2Nc2ccccc2)cc1 |  |  | 100 µM | 1 |  | 100 µM |  |  |  | 
CCCCOc1ccc(-c2nc3ncccn3c2NC2CCCCC2)c(C)c1 |  |  | 32 µM | 150 |  | 0.22 µM |  |  |  | 
COc1ccc(-c2nc3ncccn3c2NC2CCCCC2)cc1 | 100 µM | > 100 µM | > 100 µM |  |  | 0.037 µM |  | Active | Active | 0.019 µM
CCCCOc1ccc(-c2nc3ncccn3c2NCc2c[nH]cn2)cc1 |  |  | > 100 µM | > 3 |  | 38 µM |  |  |  | 
CCCCOc1ccc(-c2nc3ncccn3c2Nc2ccccc2)c(C)c1 |  |  | 23 µM | 5.1 |  | 4.5 µM |  |  |  | 
COc1ccccc1-c1nc2ncccn2c1NC1CCCCC1 | > 100 µM | > 100 µM | > 100 µM | > 43 | < 1 | 2.3 µM | < 1 |  |  | 
CC(C)(C)CC(C)(C)Nc1nc2ncccn2c1-c1ccc(Br)cc1 |  |  | > 100 µM | > 12 |  | 8.6 µM |  |  |  | 
Fc1ccc(COc2ccc(-c3nc4ncccn4c3NC3CCCCC3)cc2)cc1 |  |  | 24 µM | 92 |  | 0.26 µM |  |  |  | 
CCCCOc1ccc(-c2nc3ncccn3c2NCc2ccc(OC)cc2)cc1 |  |  | 55 µM | 4 |  | 14 µM |  |  |  | 
Cc1cc(C)n2c(NC3CCCCC3)c(-c3ccc(Br)cc3)nc2n1 |  |  | 32 µM | 51 |  | 0.36 µM |  |  |  | 
Oc1ccccc1-c1nc2ncccn2c1NC1CCCCC1 |  |  | > 100 µM | > 10 |  | 10 µM |  |  |  | 
CCCCOc1ccc(-c2nc3ncccn3c2Nc2ccc(F)cc2)cc1 |  |  | > 100 µM | > 67 |  | 1.5 µM |  |  |  | 
COCCOc1ccc(-c2nc3ncccn3c2NC2CCCCC2)cc1 |  |  | > 100 µM | > 1300 |  | 0.08 µM |  |  |  | 
CCCCOc1ccc(-c2nc3ncccn3c2N)cc1 |  |  | > 100 µM | > 1 |  | 100 µM |  |  |  | 
CCCCOc1ccc(-c2nc3ncccn3c2NCCC)cc1 |  |  | > 100 µM | > 5 |  | 22 µM |  |  |  | 
CCCCOc1ccc(-c2nc3ncccn3c2NCC2CC2)cc1 |  |  | > 100 µM | > 4 |  | 25 µM |  |  |  | 
